Source: patent publication US11083735B2, “Methods for treating sleep disorders, sleep disturbances, and related symptoms using aminosterol compositions” (Enterin, Inc., priority 2017, dated 2021)

Tests used:
[1] = Duration of the aminosterol-induced response after a single oral dose; assay type: in vivo, human; conditions: single 200 mg oral dose
Description: The invention is also based on the discovery of unexpected and unprecedented activity of orally or nasally administered squalamine and related aminosterols (e.g., aminosterol 1436). The activity relates to stimulating a sequence of events within the human GI tract with therapeutic value. With respect to this activity, the sequence of events stimulated by an aminosterol such as squalamine or aminosterol 1436 involves the induction of an intestinal secretory response followed by a period of “small intestinal quieting,” and the subsequent passage of a normally formed bowel movement. These events are best explained as a consequence of the stimulation of a heretofore unknown physiological gastrointestinal response, in this invention shown to be controlled or initiated by an effective oral dose of an aminosterol such as squalamine or the related aminosterol, 1436 (Aminosterol-Induced GI Response). The activity relates to stimulating the neural connections between the enteric nervous system and the brain with therapeutic value, which can thereby impact sleeping disorders, sleeping disturbances, or related symptoms, as described herein. With respect to this activity, the sequence of events stimulated by an aminosterol involves the entrainment of the circadian clock, the suprachiasmatic nucleus, and an improvement in the quality of sleep. […]

dogs, and rodents = conditions: administered orally; cited from earlier work
isolated colons = assay: Isolated perfused colon, migrating muscular contractions (aged mouse; loperamide in young mouse); conditions: loperamide introduced into the lumen of a young mouse
Description: Isolated colons were mounted in an apparatus that permits continuous perfusion through the lumen, and the monitoring of the velocity, frequency and pressure of migrating muscular contractions (MMCs). Similar to the experience in humans, aging in mice is associated with diminished colonic peristaltic activity.
In humans, opiates markedly diminish GI motility and suppress fluid secretion causing constipation. […] When loperamide is introduced into the lumen of a young mouse colonic peristalsis is inhibited. When squalamine is added in presence of continued loperamide perfusion, the dysmotility is overridden.

[2] = in vivo; cited from earlier work
[3] = single and repeat intravenous administration; cited from earlier work

SMILES: CC(C)[C@@H](CC[C@@H](C)[C@H]1CC[C@H]2[C@@H]3[C@H](O)C[C@H]4C[C@@H](NCCCNCCCCNCCCN)CC[C@]4(C)[C@H]3CC[C@]12C)OS(=O)(=O)O [Aminosterol 1436]
- duration of the aminosterol-induced response [1]: about 4 days
- anorectic activity (dogs, and rodents): no anorectic activity

SMILES: CN(C)C(=O)C(CCN1CCC(O)(c2ccc(Cl)cc2)CC1)(c1ccccc1)c1ccccc1 [loperamide, reference compound]
- colonic peristalsis (isolated colons): inhibited

SMILES: CC(C)[C@@H](CC[C@@H](C)[C@H]1CC[C@H]2[C@@H]3[C@H](O)C[C@H]4C[C@@H](NCCCNCCCCN)CC[C@]4(C)[C@H]3CC[C@]12C)OS(=O)(=O)O.C[C@H](O)C(=O)O.O [squalamine lactate]
- oral bioavailability [2]: poorly bioavailable orally
- well tolerated dose [3]: at least 300 mg/m^2
